# In ChEMBL document CHEMBL1201862, “PubChem BioAssay data set” (2004):
# The source made the active and inactive calls. Rule as the data show it, for most assays here: actives have a measured EC50 and inactives only a lower limit.
# Assays:
# [1] = target: T1, RNA-binding protein pos-1 (Caenorhabditis elegans, UniProt G5EF15); assay: inhibitors of POS-1/mex-3 RNA binding, dose response, biochemical, fluorescence polarization (AID 1964);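 also: purified POS-1 fused to maltose binding protein made in E. coli; potency of compounds blocking POS-1 binding to fluorescent RNA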
# T1 sequence (G5EF15 whole entry): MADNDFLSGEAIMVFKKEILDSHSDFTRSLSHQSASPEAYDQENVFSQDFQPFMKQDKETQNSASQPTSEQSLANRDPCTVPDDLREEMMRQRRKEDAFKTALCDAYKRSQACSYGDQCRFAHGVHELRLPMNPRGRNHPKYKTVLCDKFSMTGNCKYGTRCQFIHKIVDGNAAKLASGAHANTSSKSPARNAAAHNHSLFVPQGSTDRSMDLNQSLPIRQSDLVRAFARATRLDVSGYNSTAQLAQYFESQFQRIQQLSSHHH
# [2] = target: T2, Zinc finger protein mex-5 (Caenorhabditis elegans, UniProt Q9XUB2); assay: MEX-5/TCR-2 RNA interaction inhibitors, dose response, biochemical, C. elegans, fluorescence polarization (AID 1960)
# T2 sequence (Q9XUB2 whole entry): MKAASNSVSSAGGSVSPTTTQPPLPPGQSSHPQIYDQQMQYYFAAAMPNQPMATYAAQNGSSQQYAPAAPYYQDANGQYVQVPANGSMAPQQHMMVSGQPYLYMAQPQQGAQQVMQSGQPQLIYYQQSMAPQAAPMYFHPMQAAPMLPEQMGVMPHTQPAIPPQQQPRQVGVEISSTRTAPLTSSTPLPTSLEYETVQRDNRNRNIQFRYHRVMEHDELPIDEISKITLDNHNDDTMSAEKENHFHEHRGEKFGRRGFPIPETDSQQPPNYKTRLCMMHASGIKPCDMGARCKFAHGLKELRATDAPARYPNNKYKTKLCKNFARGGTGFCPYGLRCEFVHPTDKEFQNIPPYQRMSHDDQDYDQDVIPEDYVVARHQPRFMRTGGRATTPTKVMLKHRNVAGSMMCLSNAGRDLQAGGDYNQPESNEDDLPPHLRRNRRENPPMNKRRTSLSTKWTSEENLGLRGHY
# [3] = target: Luciferin 4-monooxygenase (Photinus pyralis, UniProt P08659); assay: firefly luciferase enzyme inhibitors, dose response, biochemical, luminescence (AID 1891)
# [4] = Luminescence Cell-Based Dose Confirmation HTS to Identify Inhibitors of Platelet Dense Granule Release. [Related pubchem assays: 1663 (Primary HTS), 1678 (Summary of Project)]; type: functional
# [5] = inhibitors of intracellular T. cruzi replication, confirmation, NIH3T3 host cells, beta-gal luminescence (AID 2044); type: functional, cell-based;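 also: intracellular parasites grown in NIH/3T3 mouse fibroblasts as host cells; luminescent beta-galactosidase reporter signal from transgenic T. cruzi replicating inside host cells; inhibitors lower the luminescence signal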
# [6] = cytotoxicity toward NIH3T3 fibroblasts, dose response, counter-screen, cell-based, ATP luminescence, mouse fibroblasts (AID 2010); type: functional;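 also: cells exposed to compound for about 90 hours before reading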
# [7] = target: T3, Replicative DNA helicase DnaB (Mycobacterium tuberculosis, UniProt P9WMR3); assay: DnaB intein splicing inhibitors, dose response, biochemical, cell-free fluorescence (AID 449749); type: functional
# T3 sequence (P9WMR3 whole entry): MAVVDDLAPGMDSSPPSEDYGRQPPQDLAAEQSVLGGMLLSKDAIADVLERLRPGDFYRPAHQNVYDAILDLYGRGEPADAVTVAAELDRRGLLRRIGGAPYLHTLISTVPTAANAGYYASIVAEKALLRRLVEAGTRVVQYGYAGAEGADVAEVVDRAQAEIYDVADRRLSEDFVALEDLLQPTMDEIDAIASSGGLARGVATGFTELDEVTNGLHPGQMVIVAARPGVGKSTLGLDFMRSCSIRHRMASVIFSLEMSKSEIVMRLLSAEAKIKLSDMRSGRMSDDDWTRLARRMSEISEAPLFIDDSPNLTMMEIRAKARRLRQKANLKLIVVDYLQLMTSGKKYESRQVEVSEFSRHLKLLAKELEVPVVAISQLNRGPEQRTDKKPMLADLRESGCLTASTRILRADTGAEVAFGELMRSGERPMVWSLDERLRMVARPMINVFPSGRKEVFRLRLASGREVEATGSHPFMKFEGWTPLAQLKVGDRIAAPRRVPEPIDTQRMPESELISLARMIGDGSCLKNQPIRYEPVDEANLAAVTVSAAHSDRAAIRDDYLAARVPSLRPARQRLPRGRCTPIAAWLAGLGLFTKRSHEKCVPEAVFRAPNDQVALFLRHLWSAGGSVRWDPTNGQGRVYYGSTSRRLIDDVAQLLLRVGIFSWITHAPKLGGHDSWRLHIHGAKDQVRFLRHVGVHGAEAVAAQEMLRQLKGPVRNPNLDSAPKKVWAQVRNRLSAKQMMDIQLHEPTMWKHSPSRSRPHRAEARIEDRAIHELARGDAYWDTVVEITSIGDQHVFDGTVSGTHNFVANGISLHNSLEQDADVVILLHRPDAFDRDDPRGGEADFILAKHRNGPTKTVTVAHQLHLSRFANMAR
# [8] = target: T4, Protein RecA (Mycobacterium tuberculosis, UniProt P9WHJ3); assay: Fluorescence Cell-Free Homogeneous Dose Retest to Identify Inhibitors of RecA-Intein Splicing Activity. [Related pubchem assays (depositor defined):AID2097, AID2223, AID489010, AID492950]; type: functional
# T4 sequence (P9WHJ3 whole entry): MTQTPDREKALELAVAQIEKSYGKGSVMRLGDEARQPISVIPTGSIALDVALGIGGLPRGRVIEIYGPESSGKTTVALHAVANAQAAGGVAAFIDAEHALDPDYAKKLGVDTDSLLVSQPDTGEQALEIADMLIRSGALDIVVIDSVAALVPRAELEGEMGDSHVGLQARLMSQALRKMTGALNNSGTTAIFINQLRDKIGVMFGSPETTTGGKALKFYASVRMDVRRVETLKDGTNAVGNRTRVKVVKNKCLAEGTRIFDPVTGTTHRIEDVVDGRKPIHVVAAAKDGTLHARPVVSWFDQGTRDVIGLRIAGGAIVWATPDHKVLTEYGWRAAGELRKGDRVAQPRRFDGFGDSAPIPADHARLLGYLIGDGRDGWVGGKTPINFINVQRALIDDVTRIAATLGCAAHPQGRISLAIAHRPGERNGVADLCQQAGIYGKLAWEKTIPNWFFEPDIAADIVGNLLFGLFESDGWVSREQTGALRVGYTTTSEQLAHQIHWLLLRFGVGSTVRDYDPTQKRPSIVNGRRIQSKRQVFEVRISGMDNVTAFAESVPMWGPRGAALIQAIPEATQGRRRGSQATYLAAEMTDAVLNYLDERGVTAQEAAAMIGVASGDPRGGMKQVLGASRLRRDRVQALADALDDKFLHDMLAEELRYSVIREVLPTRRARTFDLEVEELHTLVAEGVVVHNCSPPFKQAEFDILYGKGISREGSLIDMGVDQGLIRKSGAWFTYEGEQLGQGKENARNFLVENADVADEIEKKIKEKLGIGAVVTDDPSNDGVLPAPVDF
# [9] = test system: BJ; assay: cytotoxicity toward BJ-TERT fibroblasts, dose response, cell-based, RAS-independent, luminescence (AID 1933); type: functional; details: Homo sapiens
# [10] = test system: BJ; assay: cells; type: functional, cell-based; details: Homo sapiens
# [11] = test system: BJ; assay: cytotoxicity toward BJ-TERT-LT-ST fibroblasts, dose response, cell-based, RAS-independent, luminescence (AID 1935); type: functional; details: Homo sapiens;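 also: BJ fibroblasts immortalized with TERT plus LT and ST oncogenes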
# [12] = cytotoxicity toward DRD oncogenic fibroblasts, dose response, cell-based, non-viral oncogenic, luminescence (AID 1934); type: functional; details: Homo sapiens
# [13] = Shn3 3'UTR reporter inhibitors, dose response, cell-based, Clone20 osteoblasts, firefly luciferase, cherry-picked (AID 624132); type: functional;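 also: firefly luciferase luminescence from reporter carrying the Shn3 3'UTR in osteoblasts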
# [14] = inhibitors of firefly luciferase expression or activity, dose response, H4 neuroglioma cells, luminescence (AID 1990); type: functional, cell-based
# [15] = Luminescence Cell-Based Dose Response HTS to Identify Inhibitors of 5'UTR Stem-Loop Driven Prion Protein mRNA Translation in H4 Neuroglioblastoma Cells. [Related pubchem assays: 1827 (Project Summary), 1813 (Primary HTS)]; type: functional
# [16] = inhibitors of SNCA 5'UTR-driven reporter translation, confirmation, H4 neuroglioma cells, luminescence (AID 1988); type: functional, cell-based
# [17] = test system: INS1; assay: beta cell apoptosis inhibitors, cytokine rescue, dose response, luminescence, retest (AID 449756); type: functional, cell-based; details: Rattus norvegicus;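 also: cell death triggered by IL-1 beta plus TNF-alpha plus IFN-gamma mixture; protective hits raise ATP signal compared with cytokine alone wells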
# [18] = P. falciparum Dd2 growth inhibitors, dose response, SYBR Green, cherry-picked samples (AID 1159567); type: functional, cell-based
# Sequence of Luciferin 4-monooxygenase (P08659 whole entry): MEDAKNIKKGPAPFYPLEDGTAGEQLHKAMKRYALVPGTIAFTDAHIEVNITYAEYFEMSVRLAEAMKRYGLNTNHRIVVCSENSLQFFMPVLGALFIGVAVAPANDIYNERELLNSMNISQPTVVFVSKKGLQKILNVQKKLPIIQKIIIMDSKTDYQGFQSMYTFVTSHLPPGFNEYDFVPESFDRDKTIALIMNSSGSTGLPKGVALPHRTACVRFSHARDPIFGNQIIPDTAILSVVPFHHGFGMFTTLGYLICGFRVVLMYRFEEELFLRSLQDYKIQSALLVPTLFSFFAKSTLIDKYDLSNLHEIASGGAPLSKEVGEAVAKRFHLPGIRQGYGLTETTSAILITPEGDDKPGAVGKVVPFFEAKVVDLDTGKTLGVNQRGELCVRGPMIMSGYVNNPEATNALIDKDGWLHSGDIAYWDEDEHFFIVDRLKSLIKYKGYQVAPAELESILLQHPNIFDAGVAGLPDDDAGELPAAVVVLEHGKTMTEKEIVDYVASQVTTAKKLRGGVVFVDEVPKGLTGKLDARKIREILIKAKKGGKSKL
smiles,measurement,setting,value
CSc1nnc(N2C(=O)C(O)=C(C(=O)c3ccco3)C2c2ccc(F)cc2)s1 (stereo not drawn),EC50,[1],> 150 µM (not active)
same,EC50,[2],82.8 µM (active)
same,EC50,[3],> 112 µM (not active)
same,EC50,[4],> 112 µM (not active)
N=c1c(C(=O)NCC2CCCO2)cc2c(=O)n3ccccc3nc2n1Cc1ccccc1Cl (stereo not drawn),EC50,[1],104 µM (active)
same,EC50,[2],195 µM (active)
Cc1ccc(N/C=C2/Sc3ccccc3NC2=O)cc1,EC50,[1],> 300 µM (not active)
same,EC50,[2],> 300 µM (inconclusive)
same,EC50,[5],0.806 µM (active)
same,EC50,[6],> 30 µM (not active)
COC(=O)CC1=NN(c2ccc(OC)cc2)C(=O)C1,AC50,[7],54.9 µM (active)
same,EC50,[8],13.1 µM (active)
COCCCNC(=O)C(C#N)c1nc2ccccc2nc1N1CCCC1 (stereo not drawn),EC50,[1],23.8 µM (active)
same,EC50,[2],> 300 µM (inconclusive)
Cc1nn(C)c(Oc2ccccc2)c1CCNC(=O)CCl,EC50,[9],28.9 µM (active)
same,EC50,[10],> 150 µM (not active)
same,EC50,[11],> 150 µM (not active)
same,EC50,[12],> 150 µM (not active)
COc1ccc(C2C(C#N)=C(N)OC3=C2C(=O)CC(C)C3)c(OC)c1OC (stereo not drawn),EC50,[1],> 300 µM (not active)
same,EC50,[2],> 300 µM (not active)
CCOC(=O)Cc1n[nH]c2c1C(c1cc(OC)ccc1OC)C(C#N)=C(N)O2 (stereo not drawn),AC50,[7],73.9 µM (active)
same,EC50,[8],13.3 µM (active)
Cc1nc2sc3c(c2c(=O)n1NC(=O)CCl)CCCC3,EC50,[9],30.8 µM (active)
same,EC50,[10],> 150 µM (not active)
same,EC50,[11],> 150 µM (inconclusive)
same,EC50,[12],> 150 µM (not active)
O=[N+]([O-])c1c(O)nc(O)nc1/C=C/c1cccnc1,AC50,[7],> 380 µM (inactive)
same,EC50,[8],> 380 µM (inactive)
O=C1NC(=O)N(c2ccccc2)C(=O)/C1=C\NN1C(=O)c2cccc3cccc(c23)C1=O,EC50,[1],> 300 µM (not active)
same,EC50,[2],72 µM (active)
NC(=O)c1sc2nnc(-c3ccccc3)c(-c3ccccc3)c2c1N,EC50,[1],> 300 µM (not active)
same,EC50,[2],> 300 µM (not active)
CCOC(=O)Cn1c(S(=O)(=O)Cc2ccccc2Cl)nc(-c2ccccc2)c1-c1ccccc1,AC50,[13],9.29 µM (active)
CCCCS/C(=C(/C#N)C(N)=O)c1cc2c([nH]1)CCCC2,AC50,[7],> 380 µM (inactive)
same,EC50,[8],15.6 µM (active)
Cc1ccc(/C=C/C(=O)c2ccc(N3CCOCC3)cc2)s1,EC50,[1],> 300 µM (not active)
same,EC50,[2],> 300 µM (not active)
O=C(NCc1ccccc1)C1=C[C@@H](c2csc3ccccc23)C[C@@H](OCCCCO)O1,EC50,[14],11.2 µM (active)
same,EC50,[9],22.8 µM (inconclusive)
same,EC50,[15],10.5 µM (active)
same,EC50,[16],9.75 µM (active)
same,EC50,[10],35.8 µM (active)
same,EC50,[11],> 150 µM (not active)
same,EC50,[12],28.4 µM (active)
same,AC50,[17],1.43 µM (active)
Cc1nn(-c2ccccc2)c2c1C(c1ccccc1)C(C#N)=C(N)O2 (stereo not drawn),AC50,[7],16.8 µM (active)
same,EC50,[8],9.07 µM (active)
N#Cc1cc2c(nc1SCC(=O)Nc1sc3c(c1C#N)CCC3)CCC2,EC50,[9],98.7 µM (active)
same,EC50,[10],> 150 µM (not active)
same,EC50,[11],> 75 µM (not active)
same,EC50,[12],32.8 µM (active)
Cc1ccc(/C=N/NC(=O)c2nnn(-c3nonc3N)c2-c2cccs2)cc1,EC50,[1],> 300 µM (not active)
same,EC50,[2],> 300 µM (not active)
COc1cc(CN2[C@@H]3CNC[C@H]2[C@@H]3c2ccc(-c3ccccc3)cc2)cc(OC)c1,AC50,[18],6.99 µM (active)
O=C1CN(S(=O)(=O)c2ccccc2)C[C@@H]2[C@H](c3ccc(C#CCc4ccccc4)cc3)[C@@H](CO)N12,AC50,[18],4.23 µM (active)
C[C@H]1CN([C@@H](C)CO)S(=O)(=O)c2ccc(C#Cc3ccccc3)cc2O[C@H]1CN(C)C(=O)C1CC1,AC50,[18],3.95 µM (active)
O=C(C[C@@H]1CC[C@@H]2[C@H](COC[C@@H](O)CN2S(=O)(=O)c2ccccc2)O1)NCc1ccc(-c2ccccc2)cc1,AC50,[18],6.32 µM (active)
CO[C@@H]1CN(C)C(=O)c2cc(NC(=O)Nc3cccc(Cl)c3)ccc2OC[C@H](C)NC[C@H]1C,AC50,[18],6.78 µM (active)
